Reference: patent publication US20260042731A1, “(2,4-DICHLOROPHENOXY)ACETIC ACID ANALOGS” (CORTEVA AGRISCIENCE LLC, priority 2022, published 2026)
Like-named read-outs stand apart in the source and are kept apart here.

Experiments:
[1] = tested on: Abutilon theophrasti (ABUTH), velvetleaf; assay: Postemergence herbicide evaluation, growth of Abutilon theophrasti (ABUTH); format: in vivo; settings: Abutilon theophrasti, post-emergence, percent reduction in plant size vs untreated control, read-out: AVE. ABUTH; for pest or weed control at 280 g/ha: 280 g ae/ha; for pest or weed control at 560 g/ha: 560 g ae/ha
[2] = tested on: Amaranthus rudis (AMATA), tall water hemp; assay: Postemergence herbicide evaluation, growth of Amaranthus rudis (AMATA); format: in vivo; settings: Amaranthus tuberculatus, post-emergence, percent reduction in plant size vs untreated control, read-out: Ave. AMATA; for pest or weed control at 280 g/ha: 280 g ae/ha; for pest or weed control at 560 g/ha: 560 g ae/ha
[3] = tested on: Chenopodium album (CHEAL), common lambsquarters; assay: Postemergence herbicide evaluation, growth of Chenopodium album (CHEAL); format: in vivo; settings: Chenopodium album, post-emergence, percent reduction in plant size vs untreated control, read-out: Ave. CHEAL; for pest or weed control at 280 g/ha: 280 g ae/ha; for pest or weed control at 560 g/ha: 560 g ae/ha
[4] = Volatility of compounds measured by thermogravimetric analysis (TGA); format: physicochemical
[5] = tested on: weeds ABUTH, AMATA, AMBEL, CHEAL, ERICA; assay: Postemergence herbicide evaluation, overall average % weed control across ABUTH, AMATA, AMBEL, CHEAL and ERICA; format: in vivo; settings: post-emergence, average over five weeds, read-out: Overall Ave % Weed Control; for pest or weed control at 280 g/ha: 280 g ae/ha; for pest or weed control at 560 g/ha: 560 g ae/ha
[6] = tested on: Ambrosia artemisiifolia (AMBEL), common ragweed; assay: Postemergence herbicide evaluation, growth of Ambrosia artemisiifolia (AMBEL); format: in vivo; settings: Ambrosia artemisiifolia, post-emergence, percent reduction in plant size vs untreated control, read-out: AVE. AMBEL; for pest or weed control at 280 g/ha: 280 g ae/ha; for pest or weed control at 560 g/ha: 560 g ae/ha
[7] = tested on: glyphosate resistant Conyza canadensis (L.) (ERICA), horseweed; assay: Postemergence herbicide evaluation, growth of Conyza canadensis (ERICA); format: in vivo; settings: Erigeron canadensis, post-emergence, percent reduction in plant size vs untreated control, read-out: Ave. ERICA; for pest or weed control at 280 g/ha: 280 g ae/ha; for pest or weed control at 560 g/ha: 560 g ae/ha

Structure (SMILES)	pest or weed control at 280 g/ha ([1]; 168 h, 7 DAA)	pest or weed control at 560 g/ha ([1]; 168 h, 7 DAA)	pest or weed control at 280 g/ha ([1]; 336 h, 14 DAA)	pest or weed control at 560 g/ha ([1]; 336 h, 14 DAA)	pest or weed control at 280 g/ha ([1]; 504 h, 21 DAA)	pest or weed control at 560 g/ha ([1]; 504 h, 21 DAA)	pest or weed control at 280 g/ha ([2]; 168 h, 7 DAA)	pest or weed control at 560 g/ha ([2]; 168 h, 7 DAA)	pest or weed control at 280 g/ha ([2]; 336 h, 14 DAA)	pest or weed control at 560 g/ha ([2]; 336 h, 14 DAA)	pest or weed control at 280 g/ha ([2]; 504 h, 21 DAA)	pest or weed control at 280 g/ha ([3]; 168 h, 7 DAA)	pest or weed control at 560 g/ha ([3]; 168 h, 7 DAA)	pest or weed control at 280 g/ha ([3]; 336 h, 14 DAA)	pest or weed control at 560 g/ha ([3]; 336 h, 14 DAA)	pest or weed control at 280 g/ha ([3]; 504 h, 21 DAA)	pest or weed control at 560 g/ha ([3]; 504 h, 21 DAA)	TGA Data (rate of weight loss, volatility) [4]	pest or weed control at 280 g/ha ([5]; 168 h, 7 DAA)	pest or weed control at 560 g/ha ([5]; 168 h, 7 DAA)	other results
C=CCONC(=O)COc1ccc(Cl)cc1Cl [Compound D33]	85%	92.5%	98.5%	99.5%	100%	100%	92.5%	92%	92.5%	92.5%	95%	82.5%	46.5%	98%	92.5%	96.5%	99%	0.34 µg/min	85.7%	77.7%	pest or weed control at 560 g/ha ([2]; 504 h, 21 DAA): 92.5%; pest or weed control at 280 g/ha ([5]; 336 h, 14 DAA): 96.9%; pest or weed control at 560 g/ha ([5]; 336 h, 14 DAA): 94.9%; pest or weed control at 280 g/ha ([5]; 504 h, 21 DAA): 98.2%; pest or weed control at 560 g/ha ([5]; 504 h, 21 DAA): 97.8%; pest or weed control at 280 g/ha ([6]; 168 h, 7 DAA): 86%; pest or weed control at 560 g/ha ([6]; 168 h, 7 DAA): 80%; pest or weed control at 280 g/ha ([6]; 336 h, 14 DAA): 96%; pest or weed control at 560 g/ha ([6]; 336 h, 14 DAA): 90%; pest or weed control at 280 g/ha ([6]; 504 h, 21 DAA): 100%; pest or weed control at 560 g/ha ([6]; 504 h, 21 DAA): 100%; pest or weed control at 280 g/ha ([7]; 168 h, 7 DAA): 82.5%; pest or weed control at 560 g/ha ([7]; 168 h, 7 DAA): 77.5%; pest or weed control at 280 g/ha ([7]; 336 h, 14 DAA): 99.5%; pest or weed control at 560 g/ha ([7]; 336 h, 14 DAA): 100%; pest or weed control at 280 g/ha ([7]; 504 h, 21 DAA): 99.5%; pest or weed control at 560 g/ha ([7]; 504 h, 21 DAA): 97.5%
O=C(COc1ccc(Cl)cc1Cl)Oc1ccccn1 [Compound E11]	65%	82.5%	85%	97.5%	98.5%	100%	70%	85%	90%	93.5%	67.5%	77.5%	80%	97.5%	98%	92.5%	100%	0.4827 µg/min	74.5%	82.5%	pest or weed control at 560 g/ha ([2]; 504 h, 21 DAA): 90%; pest or weed control at 280 g/ha ([5]; 336 h, 14 DAA): 88%; pest or weed control at 560 g/ha ([5]; 336 h, 14 DAA): 95.6%; pest or weed control at 280 g/ha ([5]; 504 h, 21 DAA): 91.7%; pest or weed control at 560 g/ha ([5]; 504 h, 21 DAA): 98%; pest or weed control at 280 g/ha ([6]; 168 h, 7 DAA): 77.5%; pest or weed control at 560 g/ha ([6]; 168 h, 7 DAA): 80%; pest or weed control at 280 g/ha ([6]; 336 h, 14 DAA): 70%; pest or weed control at 560 g/ha ([6]; 336 h, 14 DAA): 90%; pest or weed control at 280 g/ha ([6]; 504 h, 21 DAA): 100%; pest or weed control at 560 g/ha ([6]; 504 h, 21 DAA): 100%; pest or weed control at 280 g/ha ([7]; 168 h, 7 DAA): 82.5%; pest or weed control at 560 g/ha ([7]; 168 h, 7 DAA): 85%; pest or weed control at 280 g/ha ([7]; 336 h, 14 DAA): 97.5%; pest or weed control at 560 g/ha ([7]; 336 h, 14 DAA): 90%; pest or weed control at 280 g/ha ([7]; 504 h, 21 DAA): 100%; pest or weed control at 560 g/ha ([7]; 504 h, 21 DAA): 100%
COc1ccc(CONC(=O)COc2ccc(Cl)cc2Cl)cc1 [Compound D20]	77.5%	55%	90%	67.5%	98.5%	80%	72.5%	77.5%	97.5%	96%	57.5%	85%	82.5%	87.5%	94.5%	99%	95%	0.0112 µg/min	77.5%	75%	pest or weed control at 280 g/ha ([5]; 336 h, 14 DAA): 88.9%; pest or weed control at 560 g/ha ([5]; 336 h, 14 DAA): 90.3%; pest or weed control at 280 g/ha ([5]; 504 h, 21 DAA): 90.2%; pest or weed control at 560 g/ha ([5]; 504 h, 21 DAA): 91.2%; pest or weed control at 280 g/ha ([6]; 168 h, 7 DAA): 80%; pest or weed control at 560 g/ha ([6]; 168 h, 7 DAA): 77.5%; pest or weed control at 280 g/ha ([6]; 336 h, 14 DAA): 70%; pest or weed control at 280 g/ha ([6]; 504 h, 21 DAA): 100%; pest or weed control at 560 g/ha ([6]; 504 h, 21 DAA): 100%; pest or weed control at 280 g/ha ([7]; 168 h, 7 DAA): 72.5%; pest or weed control at 560 g/ha ([7]; 168 h, 7 DAA): 82.5%; pest or weed control at 280 g/ha ([7]; 336 h, 14 DAA): 99.5%; pest or weed control at 560 g/ha ([7]; 336 h, 14 DAA): 98.5%; pest or weed control at 280 g/ha ([7]; 504 h, 21 DAA): 96%; pest or weed control at 560 g/ha ([7]; 504 h, 21 DAA): 96%
O=C(COc1ccc(Cl)cc1Cl)NOCc1ccc(Cl)cc1 [Compound D16]	65%	27.5%	72.5%	37.5%	80%	45%	75%	75%	92.5%	92.5%	85%	80%	82.5%	94%	92.5%	97.5%	100%	0.03658 µg/min	74%	67.5%	pest or weed control at 560 g/ha ([2]; 504 h, 21 DAA): 92.5%; pest or weed control at 280 g/ha ([5]; 336 h, 14 DAA): 85.3%; pest or weed control at 560 g/ha ([5]; 336 h, 14 DAA): 81.5%; pest or weed control at 280 g/ha ([5]; 504 h, 21 DAA): 92.5%; pest or weed control at 560 g/ha ([5]; 504 h, 21 DAA): 87.3%; pest or weed control at 280 g/ha ([6]; 168 h, 7 DAA): 77.5%; pest or weed control at 560 g/ha ([6]; 168 h, 7 DAA): 72.5%; pest or weed control at 280 g/ha ([6]; 336 h, 14 DAA): 75%; pest or weed control at 560 g/ha ([6]; 336 h, 14 DAA): 87.5%; pest or weed control at 280 g/ha ([6]; 504 h, 21 DAA): 100%; pest or weed control at 560 g/ha ([6]; 504 h, 21 DAA): 100%; pest or weed control at 280 g/ha ([7]; 168 h, 7 DAA): 72.5%; pest or weed control at 560 g/ha ([7]; 168 h, 7 DAA): 80%; pest or weed control at 280 g/ha ([7]; 336 h, 14 DAA): 92.5%; pest or weed control at 560 g/ha ([7]; 336 h, 14 DAA): 97.5%; pest or weed control at 280 g/ha ([7]; 504 h, 21 DAA): 100%; pest or weed control at 560 g/ha ([7]; 504 h, 21 DAA): 99%
